According to patent US7037495B1, “Antimicrobial compositions” (priority 1999, dated 2006):

Tests used:
Type in all cases: cell-based, Escherichia coli
TOP10 E. coli + bcrA [1] = test: Phage clone activity against resistance of TOP10 E. coli + bcrA to nalidixic acid; details: for Nalidixic acid MIC: in the presence of phage (neat and diluted 1:10), TOP10 E. coli + bcrA, 24 h at 37° C.
Method: TOP10 E. coli+bcrA were grown to a concentration of 2×10^4 cfu/ml in RPMI medium (Sigma) containing 100 μg/ml ampicillin (to select for the pBAD-TOPO vector) in the presence of 0.002% L-arabinose, as the inducer of the bcrA gene. 100 μl TOP10 E. coli+bcrA, at a final concentration of 1×10^4 cfu/ml, were dispensed into 96 well microtitre plate (Sigma) in the presence of neat phage and phage diluted 1:10 (see table below). Serial doubling dilutions nalidixic acid was added to each well, with the concentration ranging from 128 to 0.25 μg/ml. A control with just the media was set up. The plates were incubated for 24 h at 37° C. Six phage clones were tested.

TOP10 E. coli + bcrA [2] = test: MIC determination by microtitre broth dilution method, TOP10 E. coli + bcrA; details: for Growth of TOP10 E. coli + bcrA: 24 h at 37° C.
Method: (§1) MIC Determination by Microtitre Broth Dilution Method
(§2) TOP10 E. coli with or without (O) bcrA were grown to a concentration of 2×10^4 cfu/ml (bcrA+was grown in the presence of 100 μg/ml ampicillin to select for the pBAD-TOPO vector) in RPMI medium (Sigma) in the presence of 0.002% L-arabinose, as the inducer of the bcrA gene. 100 μl TOP10 E. coli±bcrA was dispensed into 96 well microtitre plate (Sigma) to give a final concentration of 1×10^4 cfu/ml. […] The plates were incubated for 24 h at 37° C. and scored by growth or no growth.

TOP10 E. coli − bcrA = test: MIC determination by microtitre broth dilution method, TOP10 E. coli − bcrA; details: 24 h at 37° C.
Method: as §1, §2

[3] = TOP10 E. coli + bcrA versus − bcrA

| Compound | Growth of TOP10 E. coli + bcrA (TOP10 E. coli + bcrA [2]; antibiotic 0.125 μg/ml) | Growth of TOP10 E. coli + bcrA (TOP10 E. coli + bcrA [2]; antibiotic 0.25 μg/ml) | Growth of TOP10 E. coli + bcrA (TOP10 E. coli + bcrA [2]; antibiotic 0.5 μg/ml) | Growth of TOP10 E. coli + bcrA (TOP10 E. coli + bcrA [2]; antibiotic 1 μg/ml) | Growth of TOP10 E. coli + bcrA (TOP10 E. coli + bcrA [2]; antibiotic 2 μg/ml) | Growth of TOP10 E. coli + bcrA (TOP10 E. coli + bcrA [2]; antibiotic 4 μg/ml) | Growth of TOP10 E. coli + bcrA (TOP10 E. coli + bcrA [2]; antibiotic 8 μg/ml) | Growth of TOP10 E. coli + bcrA (TOP10 E. coli + bcrA [2]; antibiotic 16 μg/ml) | Growth of TOP10 E. coli + bcrA (TOP10 E. coli + bcrA [2]; antibiotic 32 μg/ml) | Growth of TOP10 E. coli + bcrA (TOP10 E. coli + bcrA [2]; antibiotic 64 μg/ml) | Growth of TOP10 E. coli + bcrA (TOP10 E. coli + bcrA [2]; antibiotic 128 μg/ml) | Growth of TOP10 E. coli − bcrA (TOP10 E. coli − bcrA; antibiotic 0.125 μg/ml) | Growth of TOP10 E. coli − bcrA (TOP10 E. coli − bcrA; antibiotic 0.25 μg/ml) | Growth of TOP10 E. coli − bcrA (TOP10 E. coli − bcrA; antibiotic 0.5 μg/ml) | Growth of TOP10 E. coli − bcrA (TOP10 E. coli − bcrA; antibiotic 1 μg/ml) | Growth of TOP10 E. coli − bcrA (TOP10 E. coli − bcrA; antibiotic 2 μg/ml) | Growth of TOP10 E. coli − bcrA (TOP10 E. coli − bcrA; antibiotic 4 μg/ml) | Growth of TOP10 E. coli − bcrA (TOP10 E. coli − bcrA; antibiotic 8 μg/ml) | Growth of TOP10 E. coli − bcrA (TOP10 E. coli − bcrA; antibiotic 16 μg/ml) | Growth of TOP10 E. coli − bcrA (TOP10 E. coli − bcrA; antibiotic 32 μg/ml) | further results |
| --- | --- | --- | --- | --- | --- | --- | --- | --- | --- | --- | --- | --- | --- | --- | --- | --- | --- | --- | --- | --- | --- |
| AIISFGFMAFFGSVV [Peptide 1] |  |  |  |  |  |  |  |  |  |  |  |  |  |  |  |  |  |  |  |  | Nalidixic acid MIC (TOP10 E. coli + bcrA [1]): 2 µg/mL |
| CN(C)[C@@H]1C(O)=C(C(N)=O)C(=O)[C@@]2(O)C(O)=C3C(=O)c4c(O)cccc4[C@@](C)(O)[C@H]3C[C@@H]12 [Tetracycline] | + | + | + | + | + | + | − | − | − | − | − | + | + | + | + | + | − | − | − | − | Growth of TOP10 E. coli − bcrA (TOP10 E. coli − bcrA; antibiotic 64 μg/ml): −; Growth of TOP10 E. coli − bcrA (TOP10 E. coli − bcrA; antibiotic 128 μg/ml): − |
| SVVIFPLWQTVMGYT [Peptide 2] |  |  |  |  |  |  |  |  |  |  |  |  |  |  |  |  |  |  |  |  | Nalidixic acid MIC (TOP10 E. coli + bcrA [1]): 16 µg/mL |
| HRLDRMVASFAFHR [Peptide 3] |  |  |  |  |  |  |  |  |  |  |  |  |  |  |  |  |  |  |  |  | Nalidixic acid MIC (TOP10 E. coli + bcrA [1]): 8 µg/mL |
| N=C(NCCCCCCNC(=N)NC(=N)Nc1ccc(Cl)cc1)NC(=N)Nc1ccc(Cl)cc1 [Chlorohexadine] | + | + | + | + | + | + | + | − | − | − | − | + | + | + | + | + | + | + | − | − | resistance conferred by the bcrA gene in TOP10 E. coli (TOP10 E. coli + bcrA [2]; [3]): No resistance; Growth of TOP10 E. coli − bcrA (TOP10 E. coli − bcrA; antibiotic 64 μg/ml): −; Growth of TOP10 E. coli − bcrA (TOP10 E. coli − bcrA; antibiotic 128 μg/ml): − |
| CCn1cc(C(=O)O)c(=O)c2ccc(C)nc21 [Nalidixic Acid] | + | + | + | + | + | + | + | − | − | − | − | + | + | + | + | + | − | − | − | − | difference in MIC in TOP10 E. coli ± bcrA (TOP10 E. coli + bcrA [2]; TOP10 E. coli + bcrA versus − bcrA, doubling dilutions): three well difference; Growth of TOP10 E. coli − bcrA (TOP10 E. coli − bcrA; antibiotic 64 μg/ml): −; Growth of TOP10 E. coli − bcrA (TOP10 E. coli − bcrA; antibiotic 128 μg/ml): −; MIC (TOP10 E. coli + bcrA [1]; Escherichia coli, 24 h, read-out: Nalidixic acid MIC): 16 µg/mL |
| O=C(O)c1cn(C2CC2)c2cc(N3CCNCC3)c(F)cc2c1=O [Ciprofloxacin] | + | − | − | − | − | − | − | − | − | − | − | + | − | − | − | − | − | − | − | − | resistance conferred by the bcrA gene in TOP10 E. coli (TOP10 E. coli + bcrA [2]; [3]): No resistance; Growth of TOP10 E. coli − bcrA (TOP10 E. coli − bcrA; antibiotic 64 μg/ml): −; Growth of TOP10 E. coli − bcrA (TOP10 E. coli − bcrA; antibiotic 128 μg/ml): − |
